# Tested on: Pichia pastoris GS115 strain
# Test: Cordycepin tolerance test (growth curves of yeast in YPD medium with cordycepin)
# Format: cell-based
# Settings: 30° C., biomass measured every 2h, FIG. 5
# Text: In order to detect the tolerance of yeast strains to cordycepin, the inventor thus provides a method of detecting the tolerance of yeast strains to cordycepin. The Pichia pastoris GS115 strain is activated and inoculated into a 96-deep porous plate containing YPD medium, with the inoculation concentration at about OD600=0.4, supplemented with the cordycepin solutions under different concentrations (0.1, 1.0, 2.0, 5.0 g·L^−1). The broth without cordycepin is used as the control, and the porous plate is placed into BioScreene, cultured by shaking at constant temperature of 30° C., and the biomass of the strain is measured every 2h. Triplicates are set in each group, and an average value of the triplicate is calculated to draw a growth curve of yeast strains under the effect of different concentrations of cordycepin. […] As mentioned above, the cordycepin yield has exceeded 2.0 g/L, so the stress tolerance of the strain needs to be considered.
structure (smiles),measurement,setting,value
Nc1ncnc2c1ncn2[C@@H]1O[C@H](CO)C[C@H]1O [cordycepin],growth of yeast strains,YPD medium containing 2-5 g/L cordycepin,severely inhibited
same,growth of yeast strains,"YPD medium, 1 g/L cordycepin",slight impact
same,growth of yeast strains,"YPD medium, cordycepin below 0.1 g/L",almost has no effect

# Reference: patent US12312625B2, “Engineering strain producing cordycepin and its derivative 3′-deoxyinosine, its preparation method and application” (DALIAN UNIVERSITY, priority 2022, dated 2025)
